This note sets out measurements from patent US20230322724A1, “HETEROCYCLIC COMPOUNDS AS CBP/EP300 BROMODOMAIN INHIBITORS” (AURIGENE ONCOLOGY LIMITED, priority 2020, published 2023).

A word on the IC50: it is the concentration at which inhibition is half-maximal. Broadly, the inhibition is how much of the control response was suppressed.

The experiment concerns the target T1, recombinant CREBBP bromodomain (Homo sapiens, UniProt Q92793).
T1 construct: recombinant CREBBP bromodomain obtained from BPS Bioscience, USA; purchased BPS Bioscience, USA
Description: CBP TR-FRET displacement assay. In kind it is binding. To be noted: for IC50: dose-response, read-out: IC50 (group A, B, C); for inhibition at 10 µM: compound at 10 μM. The method, then:
The potency of compounds to inhibit CREBBP enzyme was tested in a TR-FRET displacement assay using recombinant CREBBP bromodomain obtained from BPS Bioscience, USA. The assay buffer was 50 mM HEPES (pH 7.5), 50 mM NaCl, 0.008% Brij 35, 0.01% BSA, 1 mM TCEP. 50 nM of CREBBP & 500 nM of Biotinylated ligand was incubated at room temperature for 30 minutes, the reaction was initiated by adding pre-incubated enzyme ligand mixture to the test compounds. After 60 min incubation, the reaction was stopped by the addition of stop mix containing 1 nM of LANCE Europium-anti-6xHis antibody (Perkin Elmer, USA) and 40 nM of Sure Light Allophycocyanin-Streptavidin (Perkin Elmer, USA). Fluorescence emission of the samples at 665 and 615 nm were measured at an excitation of 340 nm and their ratio was plotted against the compound concentrations to generate dose-response curve. The percent inhibition of the test compounds is calculated using the ratio of enzyme activity controls.
elected compounds of the present invention were screened in the above-mentioned assay procedures and IC50 values were determined by fitting the dose-response data to sigmoidal curve fitting equation using Graph pad prism software V7.
In general terms: In TR-FRET formats the signal depends on donor and acceptor labels being close together.

T1 sequence (Q92793 1085-1192 limits assumed): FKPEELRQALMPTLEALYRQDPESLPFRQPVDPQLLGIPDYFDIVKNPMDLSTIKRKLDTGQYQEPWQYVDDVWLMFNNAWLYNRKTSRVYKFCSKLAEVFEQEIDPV

`COc1cc(N2CCCc3ccc(C#N)cc32)c2cc(C)c(=O)n(C)c2c1` [Example 184]: the IC50 was greater than 10 nM.

For `COc1cc(N2CCN(C)c3cc(C4CC4)c(S(=O)(=O)NC(C)=O)cc32)c2cc(C)c(=O)n(C)c2c1` [Example 109], the IC50 is less than 50 nM.

As to `CNC(=O)c1ccc2c(c1)N(c1cc(OC)cc3c1cc(C)c(=O)n3C)CCN2C` [Example 81], the IC50 is greater than 10 nM.

In the case of `CC(=O)NS(=O)(=O)c1ccc2c(c1)N(c1cc(N3CC[C@@H](O)C3)cc3c1cc(C)c(=O)n3C)CCN2C` [Example 105], the half-inhibitory concentration (IC50) is less than 50 nM.

Take `COc1cc2c(cc1-c1cnn(C)c1)CCCN2c1nc(N2CCC(O)C2)cc2c1cc(C)c(=O)n2C` (centres unmarked) [Example 232]: the IC50 lay within 51 to 100 nM.

Consider `Cc1cc2c(N3CCCc4cc(N5CC(C)NC(C)C5)c(C(F)F)cc43)nc(C3CCOCC3)cc2n(C)c1=O` (centres unmarked) [Example 236], for which the concentration for half-maximal inhibition (IC50) was less than 50 nM.

As to `COC(=O)c1cc2c(cc1-c1cnn(C)c1)N(C)CCN2c1cc(OC)cc2c1cc(C)c(=O)n2C` [Example 34], the IC50 was less than 50 nM.

In the case of `COc1cc(N2CCN(C)c3ccc([S+](C)[O-])cc32)c2cc(C)c(=O)n(C)c2c1` (single isomer, unassigned) [Example 250], the IC50 is greater than 10 nM.

In the case of `COc1cc(N2CCN(C)c3cc(N4CCC(NC(C)=O)CC4)c(C#N)cc32)c2cc(C)c(=O)n(C)c2c1` [Example 56], the IC50 was less than 50 nM.

`Cc1cc2c(N3CCN(C)c4cc(-c5cnn(C)c5)[n+]([O-])cc43)cc(N3CCOCC3)cc2n(C)c1=O` [Example 160, 4-(1,3-Dimethyl-7-morpholino-2-oxo-1,2-dihydroquinolin-5-yl)-1-methyl-7-(1-methyl-1H-pyrazol-4-yl)-1,2,3,4-tetrahydropyrido[3,4-b]pyrazine 6-oxide]: the half-inhibitory concentration (IC50) is greater than 10 nM.

Consider `COc1cc(N2CCN(C)c3cc(C(F)(F)F)ncc32)c2cc(C)c(=O)n(C)c2c1` [Example 124], for which the half-maximal inhibitory concentration (IC50) was in the range of 51 to 100 nM.

As for `COc1cc(N2CCN(C)c3cc(N4CCC(N(C)C)CC4)c(C#N)cc32)c2cc(C)c(=O)n(C)c2c1` [Example 22], the half-maximal inhibitory concentration (IC50) was less than 50 nM.

In the case of `CC(=O)NC1CCN(c2cc3c(cc(C)c(=O)n3C)c(N3CCCc4cc(-c5cnn(C)c5)c(C(F)F)cc43)n2)C1` (centres unmarked) [Example 216], the half-maximal inhibitory concentration (IC50) was less than 50 nM.

For `Cc1cc2c(N3CCCc4cc(-c5cnn(C)c5)c(O)cc43)nc(C3CCOCC3)cc2n(C)c1=O` [Example 244, 5-(7-Hydroxy-6-(1-methyl-1H-pyrazol-4-yl)-3,4-dihydroquinolin-1(2H)-yl)-1,3-dimethyl-7-(tetrahydro-2H-pyran-4-yl)-1,6-naphthyridin-2(1H)-one], the half-maximal inhibitory concentration (IC50) was less than 50 nM.

As to `COc1cc(N2CC(=O)Nc3cc(-c4cnn(C)c4)c(F)cc32)c2cc(C)c(=O)n(C)c2c1` [Example 55], the IC50 is 51 to 100 nM.

Consider `COc1cc(N2CCN(C)c3cc(C4=CCCC4)c(S(=O)(=O)NC(C)=O)cc32)c2cc(C)c(=O)n(C)c2c1` [Example 110], for which the IC50 is less than 50 nM.

Consider `Cc1cc2c(N3CCN(C)c4ccc(S(N)(=O)=O)cc43)cc(OC(F)F)cc2n(C)c1=O` [Example 97], for which the IC50 is greater than 10 nM.

With `Cc1cc2c(N3CCN(C)c4cc(-c5cnn(C)c5)c(C#N)cc43)cc(N3CCOCC3)cc2n(C)c1=O` [Example 47], the IC50 was less than 50 nM.

Take `Cc1cc2c(N3CCN(C)c4cc(-c5cnn(C)c5)ncc43)cc(O)cc2n(C)c1=O` [Example 145, 7-Hydroxy-1,3-dimethyl-5-(1-methyl-7-(1-methyl-1H-pyrazol-4-yl)-2,3-dihydropyrido[3,4-b]pyrazin-4(1H)-yl)quinolin-2(1H)-one]: the IC50 was 51 to 100 nM.

For `Cc1cc2c(N3CCCc4cc(N5CCC(C)(N)CC5)c(C(F)F)cc43)nc(C3CCOCC3)cc2n(C)c1=O` [Example 237], the IC50 was less than 50 nM.

For the molecule `Cc1cc2c(N3CCN(C)c4cc(-c5cnn(C)c5)ncc43)cc(OCCN3CCOCC3)cc2n(C)c1=O` [Example 128], the half-maximal inhibitory concentration (IC50) is 51 to 100 nM.

In the case of `Cc1cc2c(N3CCN(C)c4cc(-c5cnn(C)c5)ncc43)cc(C3CCOCC3)cc2n(C)c1=O` [Example 143], the IC50 was 51 to 100 nM.

As to `Cc1cc2c(N3CCCc4cc(-c5cnn(C)c5)ncc43)cc(N3CCOCC3)cc2n(C)c1=O` [Example 169], the half-inhibitory concentration (IC50) was less than 50 nM.

As to `Cc1cc2c(N3CC(C)N(C)c4cc(-c5cnn(C)c5)ncc43)cc(N3CCOCC3)cc2n(C)c1=O` (centres unmarked) [Example 144], the IC50 lay in the range of 51 to 100 nM.

On to `CNC(=O)C1CCN(c2ccc3c(c2)CCCN3c2cc(OC)cc3c2cc(C)c(=O)n3C)CC1` [Example 187], for which the IC50 is greater than 10 nM.

`Cc1cc2c(N3CCN(C)c4cc(-c5cnn(C)c5)c(CO)cc43)cccc2[nH]c1=O` [Example 58, 5-(7-(Hydroxymethyl)-4-methyl-6-(1-methyl-1H-pyrazol-4-yl)-3,4-dihydroquinoxalin-1(2H)-yl)-3-methylquinolin-2(1H)-one]: the inhibition at 10 µM amounted to 91% and the half-maximal inhibitory concentration (IC50) was 51 to 100 nM.

Take `COc1cc2c(cc1-c1cnn(C)c1)CCCN2c1nc(N2CCC(S(N)(=O)=O)C2)cc2c1cc(C)c(=O)n2C` (centres unmarked) [Example 246, 1-(5-(7-Methoxy-6-(1-methyl-1H-pyrazol-4-yl)-3,4-dihydroquinolin-1(2H)-yl)-1,3-dimethyl-2-oxo-1,2-dihydro-1,6-naphthyridin-7-yl)pyrrolidine-3-sulfonamide]: the half-maximal inhibitory concentration (IC50) fell in the range of 51 to 100 nM.

For the molecule `Cc1cc2c(N3CCCc4cc(-c5cnn(C)c5)c(C(F)F)cc43)cc(N3CC[C@@H](O)C3)cc2n(C)c1=O` [Example 177], the IC50 lay within 51 to 100 nM.

For the molecule `Cc1cc2c(N3CCN(C)c4cc(-c5cnn(C)c5)c(C#N)cc43)cncc2n(C)c1=O` [Example 53], the half-maximal inhibitory concentration (IC50) was less than 50 nM.

Regarding `CCS(=O)(=O)N1CCN(c2cccc3c2cc(C)c(=O)n3C)c2ccc(-c3cnn(C)c3)cc21` [Example 74, 5-(4-(Ethylsulfonyl)-6-(1-methyl-1H-pyrazol-4-yl)-3,4-dihydroquinoxalin-1(2H)-yl)-1,3-dimethylquinolin-2(1H)-one], the IC50 was greater than 10 nM.

On to `CC(=O)N1CCN(CCOc2cc(N3CCN(C)c4cc(-c5cnn(C)c5)c(C#N)cc43)c3cc(C)c(=O)n(C)c3c2)CC1` [Example 61, 4-(7-(2-(4-Acetylpiperazin-1-yl)ethoxy)-1,3-dimethyl-2-oxo-1,2-dihydroquinolin-5-yl)-1-methyl-7-(1-methyl-1H-pyrazol-4-yl)-1,2,3,4-tetrahydroquinoxaline-6-carbonitrile], for which the IC50 is less than 50 nM.

With `Cc1cc2c(N3CCCc4cc(-c5cnn(C)c5)ncc43)cc(N3C[C@H]4C[C@@H]3CO4)cc2n(C)c1=O` [Example 168], the half-inhibitory concentration (IC50) is less than 50 nM.

Regarding `Cc1cc2c(N3CCc4ccc(-c5cnn(C)c5)cc4C3)cccc2n(C)c1=O` [Example 190], the inhibition at 10 µM turned out to be 52%.

On to `COc1cc(N2CCCc3ccc(C(F)F)cc32)c2cc(C)c(=O)n(C)c2c1` [Example 175], for which the half-inhibitory concentration (IC50) is greater than 10 nM.

Consider `Cc1cc2c(N3CCN(C)c4cc(-c5cnn(C)c5)ncc43)cc(C#CCO)cc2n(C)c1=O` [Example 155, 7-(3-Hydroxyprop-1-yn-1-yl)-1,3-dimethyl-5-(1-methyl-7-(1-methyl-1H-pyrazol-4-yl)-2,3-dihydropyrido[3,4-b]pyrazin-4(1H)-yl)quinolin-2(1H)-one], for which the IC50 lay in the range of 51 to 100 nM.

Take `CCc1cc2c(N3CCN(C)c4cc(-c5cnn(C)c5)c(C#N)cc43)cccc2[nH]c1=O` [Example 50]: the inhibition at 10 µM is 90%.

Regarding `Cc1cc2c(N3CCN(C)c4cc(-c5cnn(C)c5)ncc43)nc(N3C4CCC3COC4)cc2n(C)c1=O` [Example 221], the IC50 is greater than 10 nM.

With `Cc1cc2c(N3CCN(C)c4cc(-c5cnn(C)c5)ncc43)cc(C3CCOC3)cc2n(C)c1=O` (centres unmarked) [Example 142], the IC50 is less than 50 nM.

`COc1cc2c(cc1-c1cnn(C)c1)CCCN2c1nc(C2CCOCC2)cc2c1cc(C)c(=O)n2C` [Example 238]: the 50% inhibitory concentration (IC50) was less than 50 nM.

Consider `COc1cc2c(cc1-c1cnn(C)c1)C(C)CCN2c1nc(C2CCOCC2)cc2c1cc(C)c(=O)n2C` (centres unmarked) [Example 239], for which the half-inhibitory concentration (IC50) is 51 to 100 nM.

For the molecule `COc1cc(N2CCN(C)c3ccc(S(C)(=N)=O)cc32)c2cc(C)c(=O)n(C)c2c1` (centres unmarked) [Example 101], the inhibition at 10 µM came to 27%.

As to `Cc1cc2c(N3CCN(C)c4cc(-c5ccsc5)ncc43)cc(N3CCOCC3)cc2n(C)c1=O` [Example 140], the IC50 is less than 50 nM.

For `COc1cc(N2CC(=O)N(C)c3ccc(S(N)(=O)=O)cc32)c2cc(C)c(=O)n(C)c2c1` [Example 89], the IC50 is greater than 10 nM.

As for `COc1cc2c(cc1-c1cnn(C)c1)CCCN2c1cccc2[nH]c(=O)c(C)cc12` [Example 188], the inhibition at 10 µM stood at 25%.

For the molecule `COc1cc(N2CCN(C)c3ccc([S+](C)[O-])cc32)c2cc(C)c(=O)n(C)c2c1` (centres unmarked) [Example 99], the IC50 was in the range of 51 to 100 nM.

Consider `CNC(=O)C1CCN(c2cc3c(cc2F)N(c2cc(N4CCOCC4)cc4c2cc(C)c(=O)n4C)CCN3C)CC1` [Example 49], for which the IC50 is less than 50 nM.

In the case of `Cc1cc2c(N3CCN(C)c4cc(S(=O)(=O)C(C)C)ncc43)cc(N3CCOCC3)cc2n(C)c1=O` [Example 141], the half-inhibitory concentration (IC50) is 51 to 100 nM.

Consider `COc1cc(N2CCN(C)c3cc(N4CCCCC4=O)ncc32)c2cc(C)c(=O)n(C)c2c1` [Example 126], for which the inhibition at 10 µM was found to be 46%.

For `COc1cc(N2CCc3cccc(-c4cnn(C)c4)c3C2)c2cc(C)c(=O)n(C)c2c1` [Example 189], the 50% inhibitory concentration (IC50) was greater than 10 nM.
